Assay results published in US8637321B2, “Lipidomics approaches for central nervous system disorders” (priority 2005, dated 2014).

Assays:
[1] = cited from earlier work; for effect on serum lipids / effects on serum glucose: in vivo; for risk of DM / metabolic effect: patients with schizophrenia; for weight gain, mean increases during the first year of therapy: prospective data
[2] = tested on: patients with schizophrenia; assay: plasma lipid profiling pre- and post-treatment with antipsychotics; format: in vivo, human; for CE18:3n3 I/D: key: I: increase; D: decrease; for CE18:3n6 I/D: key: I: increase; D: decrease; for CE20:3n6 I/D: key: I: increase; D: decrease; for CE20:5n3 I/D: key: I: increase; D: decrease; for FA18:0 I/D: key: I: increase; D: decrease; for FA20:4n6 I/D: key: I: increase; D: decrease; for FA22.1n9 I/D: key: I: increase; D: decrease; for FASAT I/D: key: I: increase; D: decrease; for FCLC I/D: key: I: increase; D: decrease; for LY20:3n6 I/D: key: I: increase; D: decrease; for LY20:3n9 I/D: key: I: increase; D: decrease; for LY20:4n3 I/D: key: I: increase; D: decrease; for LY20:5n3 I/D: key: I: increase; D: decrease; for PC.n9 I/D: key: I: increase; D: decrease; for PC18:0 I/D: key: I: increase; D: decrease; for PC18:1n9 I/D: key: I: increase; D: decrease; for PC20:2n6 I/D: key: I: increase; D: decrease; for PC20:3n6 I/D: key: I: increase; D: decrease; for PC20:3n9 I/D: key: I: increase; D: decrease; for PC20:4n3 I/D: key: I: increase; D: decrease; for PC20:5n3 I/D: key: I: increase; D: decrease; for PC22:0 I/D: key: I: increase; D: decrease; for PC22:4n6 I/D: key: I: increase; D: decrease; for PCLC I/D: key: I: increase; D: decrease; for PE18:3n6 I/D: key: I: increase; D: decrease; for PE20:3n6 I/D: key: I: increase; D: decrease; for PE20:3n9 I/D: key: I: increase; D: decrease; for PE20:5n3 I/D: key: I: increase; D: decrease; for PE22:5n6 I/D: key: I: increase; D: decrease; for PELC I/D: key: I: increase; D: decrease; for SP14:0 I/D: key: I: increase; D: decrease; for SP20:3n6 I/D: key: I: increase; D: decrease; for SPSAT I/D: key: I: increase; D: decrease; for TG14:0 I/D: key: I: increase; D: decrease; for TG18:0 I/D: key: I: increase; D: decrease; for TG20:1n9 I/D: key: I: increase; D: decrease; for TG20:3n6 I/D: key: I: increase; D: decrease; for TG20:4n3 I/D: key: I: increase; D: decrease; for TGLC I/D: key: I: increase; D: decrease
Text: (§1) Fifty male and female patients were recruited in two studies for metabolic profiling (Table VI and Table VII for demographics). Subjects ranged in age from 18 to 60 years and met the following inclusion criteria: a) DSM-IV criteria for schizophrenia, schizophreniform disorder, or schizoaffective disorder; b) newly hospitalized for a psychotic exacerbation in the setting of no antipsychotic treatment for at least 3 weeks prior to admission; and c) provided signed informed consent. Patients with psychoses due to psychoactive substance abuse or an underlying medical condition were excluded. Patients who were receiving treatment for diabetes mellitus or hyperlipidemia were also excluded.
The choice and dose of antipsychotic medication was based on the doctor's judgment. […] The treatment duration was 2-3 weeks. […] The mean duration of therapy was about 2 weeks for all 3 drugs in Study II. The drug groups were otherwise generally similar in severity of disease and physical characteristics (Table VI and Table VII). The 2-3 week duration permits the study of acute early effects.
All blood samples were drawn from subjects in the early morning after overnight fasting. Blood was drawn into vacutainer tubes containing sodium heparin, immediately placed on ice, and within 10 minutes, the blood was centrifuged and the plasma was transferred into polypropylene tubes and stored in a −30° C. freezer. All baseline samples were drawn prior to starting antipsychotic treatment in the study. If a patient had received a dose of an antipsychotic during the referral process (e.g., because of agitation when initially seen in a local emergency department), drawing of baseline plasma samples was delayed for 2-3 days. Follow-up samples were drawn after patients had received an average of 2-3 weeks of acute antipsychotic treatment.
A comprehensive assessment of plasma lipid profiles was performed (Lipomics Technologies, West Sacramento, Calif.) according to established methods (Watkins, et al. (2002) J. Lipid Res. 43(11):1809-17). Quantitative measurements of fatty acids in various lipid classes were determined as nmol fatty acid/gram of plasma. Lipid classes included cholesterol esters (CE), free cholesterol (FC), triacylglycerols (TG), diacylglycerols (DG), free fatty acids (FA), lysophosphatidylcholine (LY), phosphatidylcholine (PC), and phosphatidylethanolamine (PE). Lipid metabolites are identified by the lipid class and the fatty acid moiety. In the context of this invention, fatty acids are identified first by the number of carbons in the molecule (e.g., 20), the number of double bonds in the molecule (e.g., 4), and lastly the position of the double bonds (e.g., n6). To illustrate, PC20:4n6 denotes a phosphatidylcholine molecule containing a 20 carbon fatty acid with 4 double bonds at the n6 position.
Significant differences between pre- and post-drug treatment were assessed by paired t-tests. Evaluation of response to drug was assessed by two-way ANOVA. All statistics were done using R with the following functions: t.test, anova, prcomp, and g/m (Team RDC (2005) R: A language and environment for statistical computing. R Foundation for Statistical Computing). Before beginning statistical analyses, change detection was used to determine if observed signals were greater than that which could be expected by chance (noise). The chance distribution of p-values was determined by permuting the outcome groupings (Golub, et al. (1999) Science 286(5439):531-7). Briefly, P values for the appropriate comparison were calculated for each metabolite using a Student's t-test. The metabolites were ranked by p value from smallest to largest. The log of the rank versus the log of the p value for each comparison of interest was plotted and is represented by a colored line. The distribution of p values expected by chance at each rank is indicated by the shaded area. […]

[3] = tested on: patients with schizophrenia; assay: Clinical Global Impressions (CGI) Scale psychopathology assessment; format: in vivo, human; details: means and standard error; for CGI Affective, Post / CGI Negative, Post / CGI Positive, Post: CGI Scale 1 to 7, higher scores greater severity; for CGI Change, Post: overall global change rating at follow-up (1-2 responders, 3-6 non-responders)
Text: as §1
The choice and dose of antipsychotic medication was based on the doctor's judgment. […] The treatment duration was 2-3 weeks. […] The 2-3 week duration permits the study of acute early effects.
Psychopathology was assessed on the Clinical Global Impressions (CGI) Scale at baseline and at the time of follow-up blood draws. Scores for the CGI Scale can range from 1 to 7, with higher scores indicating greater severity of illness (Guy (1975) ECDEU Assessment Manual for Psychopharmacology: Publication ADM 76-338. Washington, D.C.: US Department of Health, Education, and Welfare). An overall global change rating was also made at the time of the follow-up blood draw.

[4] = Study I, plasma, post-treatment vs pre-treatment
[5] = Study II, plasma, post vs pre-treatment
[6] = plasma, mole percentage data, post treatment compared with pretreatment
[7] = plasma, total lipid class data (nmol/g sample), post treatment compared with pretreatment
[8] = Study I, after 2-3 weeks treatment
[9] = Study II, about 2 weeks treatment

For `O=C1Cc2cc(CCN3CCN(c4nsc5ccccc45)CC3)c(Cl)cc2N1` [ziprasidone], the “effect on serum lipids” value [1] is listed as “lipid-neutral” and the “effects on serum glucose” value [1] is listed as “minimal effects”.

With `O=C1CCc2ccc(OCCCCN3CCN(c4cccc(Cl)c4Cl)CC3)cc2N1` [Aripiprazole, aripiprazole] the PE class concentration [2, 4] was “increased”, the fatty acid concentrations [2, 4] was “very little change” and the lipid changes overall [2, 4] was “Minimal significant lipid changes”. The “n7 and n9 free fatty acids” value [2, 4] was “no change”, the “total lipid classes other than PE” value [2, 4] was “no other total lipid class changes” and the lipid changes overall ([2]; Study II (replication set), plasma, post vs pre-treatment) was “minimal lipid changes”. For the same molecule, the fatty acid concentrations [2, 5] was “very little change”, the “other lipid classes (than PE)” value [2, 5] was “No significant changes” and the PE concentration ([2]; Study II, plasma, post-treatment vs pre-treatment) was “increased”. For the same molecule, the “plasma fatty acid compositions” value ([2]; patients after treatment) was “affected minimally”, the “CE18:0 I/D” value [2, 6] was “I” and the “LY22.5n3 I/D” value [2, 6] was “I”. For the same molecule, the “PC22:5n6 I/D” value [2, 6] was “I”, the “SP14:1n5 I/D” value [2, 6] was “I” and the “SP18:3n3 I/D” value [2, 6] was “I”. For the same molecule, the “SPSAT I/D” value [2, 6] was “I”, the “TG18:0 I/D” value [2, 6] was “I” and the “TG22:2n6 I/D” value [2, 6] was “I”. For the same molecule, the “PELC I/D” value [2, 7] was “I”, the “CGI Affective, Post” value [3, 8] was 1.5 ± 0.3 and the “CGI Negative, Post” value [3, 8] was 1.3 ± 0.3. The “CGI Positive, Post” value [3, 8] was 2.5 ± 0.3, the “CGI Change, Post” value ([3]; Study I) was 2.5 ± 0.3 and the “CGI Affective, Post” value [3, 9] was 1.4 ± 0.2. For the same molecule, the “CGI Negative, Post” value [3, 9] was 1.6 ± 0.3, the “CGI Positive, Post” value [3, 9] was 2.5 ± 0.2 and the “CGI Change, Post” value ([3]; Study II) was 2.8 ± 0.2. For the same molecule, the “effect on serum lipids” value [1] was “lipid-neutral” and the “effects on serum glucose” value [1] was “minimal effects”.

For `CN1CCN(C2=Nc3cc(Cl)ccc3Nc3ccccc32)CC1` [clozapine], the “risk of DM / metabolic effect” value [1] is given as “higher risk”.

In the case of `O=C(CCCN1CCC(O)(c2ccc(Cl)cc2)CC1)c1ccc(F)cc1` [haloperidol], the “risk of DM / metabolic effect” value [1] is listed as “metabolically neutral”.

In the case of `Cc1cc2c(s1)Nc1ccccc1N=C2N1CCN(C)CC1` [Olanzapine, olanzapine], the “CE18:3n3 I/D” value [2, 6] is reported as “I”, the “CE18:3n6 I/D” value [2, 6] is reported as “I” and the “CE20:3n6 I/D” value [2, 6] is reported as “I”. The “CE20:5n3 I/D” value [2, 6] was “I”, the “FA18:0 I/D” value [2, 6] was “I” and the “FA20:4n6 I/D” value [2, 6] was “I”. For the same molecule, the “FA22.1n9 I/D” value [2, 6] was “I”, the “FASAT I/D” value [2, 6] was “I” and the “LY20:3n6 I/D” value [2, 6] was “I”. The “LY20:3n9 I/D” value [2, 6] was “I”, the “LY20:4n3 I/D” value [2, 6] was “I” and the “LY20:5n3 I/D” value [2, 6] was “I”. For the same molecule, the “PC18:0 I/D” value [2, 6] was “I”, the “PC18:1n9 I/D” value [2, 6] was “I” and the “PC20:2n6 I/D” value [2, 6] was “I”. The “PC20:3n6 I/D” value [2, 6] was “I”, the “PC20:3n9 I/D” value [2, 6] was “I” and the “PC20:4n3 I/D” value [2, 6] was “I”. For the same molecule, the “PC20:5n3 I/D” value [2, 6] was “I”, the “PC22:0 I/D” value [2, 6] was “I” and the “PC22:4n6 I/D” value [2, 6] was “I”. The “PC.n9 I/D” value [2, 6] was “I”, the “PE18:3n6 I/D” value [2, 6] was “I” and the “PE20:3n6 I/D” value [2, 6] was “I”. The “PE20:3n9 I/D” value [2, 6] was “I”, the “PE20:5n3 I/D” value [2, 6] was “I” and the “PE22:5n6 I/D” value [2, 6] was “I”. The “SP14:0 I/D” value [2, 6] was “I”, the “SP20:3n6 I/D” value [2, 6] was “I” and the “SPSAT I/D” value [2, 6] was “I”. The “TG14:0 I/D” value [2, 6] was “I”, the “TG20:1n9 I/D” value [2, 6] was “I” and the “TG20:3n6 I/D” value [2, 6] was “I”. The “TG20:4n3 I/D” value [2, 6] was “I”, the “FCLC I/D” value [2, 7] was “I” and the “PCLC I/D” value [2, 7] was “I”. The “PELC I/D” value [2, 7] was “I”, the “TGLC I/D” value [2, 7] was “I” and the “CGI Affective, Post” value [3, 8] was 1.5 ± 0.2. For the same molecule, the “CGI Negative, Post” value [3, 8] was 2.2 ± 0.3, the “CGI Positive, Post” value [3, 8] was 2.9 ± 0.2 and the “CGI Change, Post” value ([3]; Study I) was 2.8 ± 0.2. The “CGI Affective, Post” value [3, 9] was 1.2 ± 0.2, the “CGI Negative, Post” value [3, 9] was 1 ± 0 and the “CGI Positive, Post” value [3, 9] was 2.4 ± 0.2. For the same molecule, the “CGI Change, Post” value ([3]; Study II) was 3 ± 0.3, the “risk of DM / metabolic effect” value [1] was “higher risk” and the “weight gain, mean increases during the first year of therapy” value [1] was 15.0-26.0 lbs.

In the case of `OCCOCCN1CCN(C2=Nc3ccccc3Sc3ccccc32)CC1` [quetiapine], the “effect on serum lipids” value [1] is given as “discrepant data” and the “weight gain, mean increases during the first year of therapy” value [1] is given as 6.1-12.3 lbs.
